Measurements from PMC12422582, “A divergent cyclic nucleotide binding protein promotes Plasmodium ookinete infection of the mosquito” (PLOS Pathogens, 2025).

What was measured:
CNB3 of PbCBP-O (PbCNB3) = target: T1, CNB3 of PbCBP-O (PbCNB3) (Plasmodium berghei, UniProt A0A509AL17); assay: cGMP-agarose pull-down, anti-His western blot; type: binding; details: ligand immobilised through position […] as 8-AET-cGMP-Agarose (BioLog); E. coli lysate, Hepes pH […]°C, […] h
T1 construct: gene PBANKA_1025300; N-terminal 6xHis, pET28a, E. coli Rosetta DE3, soluble lysate

[1] = target: T2, CBP-O(ΔN-term), GFP-tagged (Plasmodium berghei, UniProt A0A509AL17); assay: cGMP-agarose pull-down from schizont lysate, anti-GFP western blot; type: biochemical; details: ligand immobilised as 8-AET-cGMP-Agarose; Hepes pH […]°C, […] h
T2 construct: gene PBANKA_1025300; endogenous locus edited: residues 1-1694 deleted, CNB1-4/X kept, GFP tag; P. berghei schizont lysate

Nc1nc2c(ncn2[C@@H]2O[C@@H]3COP(=O)(O)O[C@H]3[C@H]2O)c(=O)[nH]1 [cGMP]
cGMP-agarose pull-down, anti-His western blot (CNB3 of PbCBP-O (PbCNB3)): CNB3 showed affinity for both cAMP and cGMP (Fig 6C)
cGMP-agarose pull-down from schizont lysate, anti-GFP western blot [1]: the N-term mutant retained cyclic nucleotide binding activity (Fig 6D)
